Reference: patent US9339486B2, “Heterocyclic modulators of cannabinoid receptors” (THE CLEVELAND CLINIC FOUNDATION, priority 2008, dated 2016)
Read-outs that look alike come from different tables or passages of the source.

Columns and labels:
[1] = target: CB1 (Homo sapiens (Human), UniProt P21554); experiment: CB1 Binding Assay ([3H]CP 55940, cell membrane homogenates)
Description: After being incubated, the samples were filtered rapidly under vacuum through glass fiber filters (GF/B; Packard) presoaked with 0.3% PEI and rinsed several times with ice-cold buffer containing 50 mM Tris HCl (pH 7.4) and 0.5% BSA using a 96-sample cell harvester (Unifilter; Packard). The filters were dried then counted for radioactivity in a scintillation counter (Topcount; Packard) using a scintillation cocktail (Microscint 0; Packard). The results were expressed as a percentage of the inhibition of the control radioligand-specific binding. The reference standard compounds were tested in each experiment at several concentrations to obtain a competition curve from which its IC50 was calculated.

[2] = target: CB2 (Homo sapiens (Human), UniProt P34972); experiment: Radioligand competition binding, CHO-K1 membranes, [3H]CP 55,940; conditions: 1 nM [3H]CP 55,940, read-out: Mean Ki (nM) hCB2
Description: Mukherjee, S., et al., Species Comparison and Pharmacological Characterization of Rat and Human CB2 Cannabinoid Receptors, Eur J Pharmacol, 2004, 505:1-9. […] IC50 were determined by non-linear regression using one site competition equation. The inhibition constants (Ki) were calculated using the Cheng Prusoff equation (Ki=IC50/(1+(L/KD)), where L=concentration of radioligand in the assay, and KD=affinity of the radioligand for the receptor).

[3] = target: rat CB1 (rCB1) (Rattus norvegicus (Rat), UniProt P20272); experiment: cAMP activation assay rCB1; format: cell-based
Description: The test was performed in 96 well plates. For testing, 12 μl of cells (2×10^3 cells/well) were mixed with 12 μl of agonist at increasing concentrations. […] The plates were then incubated for 30 min at room temperature. After addition of the lysis buffer, cAMP concentrations were estimated, according to the manufacturer specification, with the HTRF kit from Cis-Bio International (Catalogue number 62AM2PEB).

[4] = test system: paclitaxel-induced neuropathic pain model; experiment: animal or person; format: in vivo, rat; conditions: for ED50: Rattus norvegicus, ip
Description: Groups of rats received daily i.p. injections of either vehicle or 1.0 mg/kg paclitaxel daily for four consecutive days for a final cumulative dose of 4 mg/kg; using an injection volume of 1 ml/kg. Polomano, R. C., et al., A Painful Peripheral Neuropathy in the Rat Produced by the Chemotherapeutic Drug, Paclitaxel, Pain, 2001, 94:293-304. The vehicle used in our experiments was the same vehicle used clinically for paclitaxel injections and is composed of a mixture of 10% saline and Cremophor EL® and […]. Baseline responses to mechanical stimulation of the hindpaw (see below) were established on day zero and continued daily until the development of neuropathy was confirmed.
Rats were placed in a compartment with a wire mesh bottom and allowed to acclimate for a minimum of 30 min before testing. Mechanical sensitivity was assessed using a series of Von Frey filaments with logarithmic incremental stiffness (0.41, 0.70, 1.20, 2.00, 3.63, 5.50, 8.50, and 15.1 g) (Stoelting, Wood Dale, Ill.) as previously described, and 50% probability withdrawal thresholds were calculated with the up-down method. Chaplan, S. R., et al., Quantitative Assessment of Tactile Allodynia in the Rat Paw, J. Neurosci. Methods, 1994, 53:55-63; Dixon, W., The Up-and-Down Method for Small Samples, J. Am. Stat. Assoc., 1965, 60:967-78. In brief, beginning with the 2.0-g probe, filaments were applied to the plantar surface of a hind paw for 6-8 s, in an ascending or descending order after a negative or positive withdrawal response, respectively. Six consecutive responses from the first change in the response were used to calculate the withdrawal threshold (in grams). In cases where response thresholds fell outside the range of detection, 15.00 and 0.25 g were, respectively, assigned for continuous negative or positive responses to the limit of stimuli. The percent maximal possible effect (% MPE) was calculated as ([postdrug threshold−baseline threshold]/[cutoff threshold (15 g)−baseline threshold])×100.
To determine sensitivity to noxious heat, rats were placed in plexiglass enclosures on a transparent glass surface maintained at 30° C. and allowed to acclimate for 30 min. A thermal testing apparatus, consisting of a heat-emitting projector lamp and an electronic timer, was used. The device was activated after the lamp is placed directly beneath the planter surface of the hindpaw. The paw withdrawal latency in response to the radiant heat was recorded by a digital timer. A cutoff of 30 s was used to prevent potential tissue damage. After the baseline was measured, three groups of naïve rats (n=10) received 1.0, 3.0, or 10 mg/kg of the compound of Example 3 i.p. Response latencies were determined twice for each rat before drug injection and at 5, 10, 15, 30, 45, 60, 90 and 120 min after IP injection. The percent maximal possible effect (% MPE) was calculated as ([postdrug latency−baseline latency]/[cutoff time (30 s)−baseline latency])×100.
Statistical analyses were carried out using BMDP 2007 (Statistical Solutions, Saugus, Mass., USA) and Graph Pad Prism (version 4.03; Graph Pad Software Inc., San Diego, Calif., USA). Data were analyzed using one-way ANOVA, repeated measures ANOVA, or t-test where appropriate. If ANOVA was significant, Tukey-Kramer post hoc analysis was used for multiple group comparison. Area under the curve (AUC) was calculated using the trapezoidal rule. The results are presented as mean±s.e. mean and were considered significant at P<0.05. Analyses of the dose-response curves and statistics were obtained using the pharmacologic software programs of Tallarida and Murray and included calculation of the ED50 values and their 95% confidence intervals (CI). Tallarida, R. J., et al., Manual of Pharmacologic Calculations With Computer Programs, Second ed. New York: Springer-Verlag, 1987.

[5] = CB1, test concentration 1.0E−05 (MD)

CB1, sequence (P21554 whole entry): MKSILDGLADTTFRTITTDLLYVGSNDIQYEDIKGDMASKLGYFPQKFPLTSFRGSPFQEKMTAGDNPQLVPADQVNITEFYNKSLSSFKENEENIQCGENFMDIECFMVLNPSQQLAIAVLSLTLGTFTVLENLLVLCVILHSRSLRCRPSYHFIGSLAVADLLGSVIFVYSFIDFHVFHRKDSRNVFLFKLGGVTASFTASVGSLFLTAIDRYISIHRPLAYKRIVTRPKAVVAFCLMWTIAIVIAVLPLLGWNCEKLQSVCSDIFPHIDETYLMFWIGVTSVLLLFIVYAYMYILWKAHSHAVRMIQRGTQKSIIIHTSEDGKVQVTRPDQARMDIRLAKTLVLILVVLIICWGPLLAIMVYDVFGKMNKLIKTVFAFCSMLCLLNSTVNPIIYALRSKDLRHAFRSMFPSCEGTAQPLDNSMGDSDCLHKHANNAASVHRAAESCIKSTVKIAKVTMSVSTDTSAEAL

## CC1(Cc2ccccc2)COc2cc(C(=O)N3CCCCC3)ccc21 (stereo not drawn) [Example 3, 3-benzyl-3-methyl-2,3-dihydrobenzofuran-6-carboxylic acid-piperidine amide]
[1]; [5]
  % Inhibition of Control Specific Binding: 71%
  % of Control Specific Binding Mean: 29%
[1]; CB1, test concentration 1.0E−05 (MD), first replicate
  % of Control Specific Binding 1st: 22%
[1]; CB1, test concentration 1.0E−05 (MD), second replicate
  % of Control Specific Binding 2nd: 36%
[1]; as repeated in Table 3
  % Inhibition of Control Specific Binding CB1: 71%
[2]
  Ki: 422 ± 123 nM
[3]
  activity at rCB1 receptors: did not exhibit any activity
[3]; read-out: Agonist EC50 (mean ± s.e. mean) cAMP activation assays rCB1
  EC50: > 10 µM
[4]; 20 min, read-out: ED50 for suppressing thermal hyperalgesia
  ED50: 13.5 mg/kg
[4]; read-out: ED50 tactile allodynia (% MPE withdrawal threshold AUC)
  ED50: 24 mg/kg
[4]; i.p.
  time of maximal suppression: 20 min
[4]; i.p., dose-dependent
  effect on paclitaxel-evoked thermal hyperalgesia and mechanical allodynia relative to vehicle: suppressed
